pIC50: −log10 of the molar value.
System: Mycobacterium tuberculosis variant bovis
Test: Antibacterial activity against Mycobacterium bovis BCG ATCC 35741 incubated for 16 to 24 hrs by broth microdilution based spectrophotometric analysis
Type: functional, organism-based

SMILES | pIC50
CC(=O)O[C@H]1CC[C@H](C)[C@@H]2[C@@H]1C=C(C)[C@H]1/C(C)=C/CC/C(C)=C/[C@]3(C)C=C(C)[C@H](C)C[C@]34OC(=O)C(=C4O)C(=O)[C@@]21C | < 4.52
COc1cc(C)c(C(=O)O[C@H]2[C@@H](O)[C@@H](O)[C@H](O[C@H]3CC[C@H](C)[C@@H]4[C@@H]3C=C(C)[C@H]3/C(C)=C/CC/C(C)=C/[C@@H]5C=C(C(=O)O)[C@H](C)C[C@]56OC(=O)C(=C6O)C(=O)[C@@]43C)O[C@@H]2C)c(O)c1 | < 4.52
CC1=C[C@@]2(C)/C=C(\C)CC/C=C(\C)[C@@H]3C(C)=C[C@H]4[C@@H]([C@@H](C)CC[C@@H]4O)[C@]3(C)C(=O)C3=C(O)[C@@]2(C[C@H]1C)OC3=O | < 4.52
COc1cc(C)c(C(=O)O[C@H]2[C@@H](O)[C@H](O[C@H]3CC[C@H](C)[C@@H]4[C@@H]3C=C(C)[C@H]3/C(C)=C/CC/C(C)=C/[C@]5(C)C=C(C(=O)O)[C@H](C)C[C@]56OC(=O)C(=C6O)C(=O)[C@@]43C)O[C@H](C)[C@H]2O)c(O)c1 | < 4.52
COc1cc(C)c(C(=O)N[C@@H]2[C@@H](C)O[C@@H](O[C@H]3CC[C@H](C)[C@@H]4[C@@H]3C=C(C)[C@H]3/C(C)=C/CC/C(C)=C/[C@@H]5C=C(C(=O)O)[C@H](C)C[C@]56OC(=O)C(=C6O)C(=O)[C@@]43C)[C@H](O)[C@]2(C)O)c(O)c1 | < 4.52
COc1cc(C)c(C(=O)O[C@H]2[C@@H](O)[C@@H](O)[C@H](O[C@H]3CC[C@H](C)[C@@H]4[C@@H]3C=C(C)[C@H]3/C(C)=C/CC/C(C)=C/[C@]5(C)C=C(C(=O)O)[C@H](C)C[C@]56OC(=O)C(=C6O)C(=O)[C@@]43C)O[C@@H]2C)c(O)c1 | < 4.52
COc1cc(C)c(C(=O)N[C@@H]2[C@@H](C)O[C@@H](O[C@H]3CC[C@H](C)[C@@H]4[C@@H]3C=C(C)[C@H]3/C(C)=C/CC/C(C)=C/[C@]5(C)C=C(C(=O)O)[C@H](C)C[C@]56OC(=O)C(=C6O)C(=O)[C@@]43C)[C@H](O)[C@]2(C)O)c(O)c1 | < 4.52
COc1cc(C)c(C(=O)O[C@H]2[C@H](O[C@H]3CC[C@H](C)[C@@H]4[C@@H]3C=C(C)[C@H]3/C(C)=C/CC/C(C)=C/[C@]5(C)C=C(C(=O)O)[C@H](C)C[C@]56OC(=O)C(=C6O)C(=O)[C@@]43C)O[C@H](C)[C@@H](O)[C@H]2O)c(O)c1 | < 4.52
COc1cc(C)c(C(=O)O[C@H]2[C@@H](O)[C@H](O[C@H]3CC[C@H](C)[C@@H]4[C@@H]3C=C(C)[C@H]3/C(C)=C/CC/C(C)=C/[C@@H]5C=C(C(=O)O)[C@H](C)C[C@]56OC(=O)C(=C6O)C(=O)[C@@]43C)O[C@H](C)[C@H]2O)c(O)c1 | < 4.52
COc1cc(C)c(C(=O)O[C@H]2[C@H](O[C@H]3CC[C@H](C)[C@@H]4[C@@H]3C=C(C)[C@H]3/C(C)=C/CC/C(C)=C/[C@@H]5C=C(C(=O)O)[C@H](C)C[C@]56OC(=O)C(=C6O)C(=O)[C@@]43C)O[C@H](C)[C@@H](O)[C@H]2O)c(O)c1 | < 4.52
COc1cc(C)c(C(=O)O[C@H]2[C@@H](O)[C@@H](O)[C@H](O[C@H]3CC[C@H](C)[C@@H]4[C@@H]3C=C(C)[C@H]3/C(C)=C/CC/C(C)=C/[C@]5(C)C=C(C(=O)O)[C@H](C)C[C@]56OC(=O)C(=C6O)C(=O)[C@@]43C)O[C@@H]2C)c(OC)c1 | < 4.52
CC(=O)O[C@H]1CC[C@H](C)[C@@H]2[C@@H]1C=C(C)[C@H]1/C(C)=C/CC/C(C)=C/[C@@H]3C=C(C)[C@H](C)C[C@]34OC(=O)C(=C4O)C(=O)[C@@]21C | < 4.52
